Measurements from PMC7448123, “Ru(II) Complexes Bearing O, O-Chelated Ligands Induced Apoptosis in A549 Cells through the Mitochondrial Apoptotic Pathway” (Bioinorganic Chemistry and Applications, 2020).

Tests used:
A549 cells [1] = experiment: Annexin V-FITC/PI apoptosis flow cytometry; assay type: cell-based, human; conditions: 24 h
Protocol: (§1) First, A549 cells were incubated in six-well plates for 12 h and then exposed to Ru(II) complexes for 24 h. After incubation, cell nuclei were stained with Hoechst 33342 (5 μg/mL) for 10 min, washed twice with PBS, and then photographed using an inverted fluorescence microscope. […] The suspension was stained with 5 μL Annexin V-FITC and 10 μL PI at room temperature for 15 min and then analyzed using the flow cytometer.

A549 cells [2] = experiment: Comet assay (single-cell gel electrophoresis), DNA damage; assay type: cell-based, human; conditions: 10 μM, 12 h
Protocol: Single-cell gel electrophoresis was performed to detect DNA damage, as previously described. Comet assay was performed according to the manufacturer's instructions. DNA was stained with SYBR Green I (Trevigen) and imaged under an inverted fluorescence microscope.
Excessive intracellular ROS can activate DNA damaged sensor proteins and lead to DNA damage, an essential hallmark of cell apoptosis. Indeed, the DNA damage effect has been observed in many previously developed Ru(II) complexes. To determine whether or not these complexes can induce DNA damage, the single-cell gel electrophoresis assay (comet assay) was conducted in our study. […] Also, the comet assay (DNA fragments appearance) could serve as a mark for apoptosis assessment. As shown in Figure 6(a), in the control group, there was no comet-like cell observed. […] Increasing the concentration to 20 μM recorded markedly higher levels of comet tails, showing that more DNA fragmentation has occurred.

MCF-7 (breast cancer) = experiment: MTT cytotoxicity assay, MCF-7; assay type: cell-based, human; conditions: 48 h
[3] = system: BEAS-2B (immortalized human bronchial epithelial cells); experiment: MTT cytotoxicity assay, normal BEAS-2B; assay type: cell-based; conditions: 48 h
A549 cells [4] = experiment: Intracellular ROS level, DCFH-DA flow cytometry; assay type: cell-based, human; conditions: 20 μM, 12 h
Protocol: The mitochondrial membrane potential (MMP) of A549 cells was analyzed by using an inverted fluorescence microscope and flow cytometry. […] For microscope observation, the collected cells were incubated in complete medium containing JC-1 (10 μg/mL) for 30 min and washed with PBS twice and then imaged by an inverted fluorescence microscope (Nikon, Japan). For flow cytometry analysis, the cells were trypsinized and washed twice with PBS and then incubated in 500 μL PBS containing JC-1 (10 μg/mL) for 30 min at 37°C. The cells were analyzed by flow cytometer immediately. The intracellular ROS level of A549 cells was detected after DCFH-DA stain, as illustrated in our new publication.
Increasing intracellular ROS levels can trigger cell apoptosis. […] To explore the roles of ROS in Ru(II) complex-induced cell apoptosis, we detected intracellular ROS levels by using an inverted fluorescence microscope and flow cytometry after staining A549 cells with DCFH-DA fluorescent dye.

[5] = system: HeLa (human cervical cancer); experiment: MTT cytotoxicity assay, HeLa; assay type: cell-based; conditions: 48 h
[6] = system: A549 (human lung carcinoma); experiment: MTT cytotoxicity assay, A549; assay type: cell-based; conditions: 48 h; for IC50: MTT
[7] = Stability towards GSH and BSA by UV-Vis absorption; assay type: physicochemical; conditions: 12 h, 37 °C, PBS buffer (pH 7.4)
Protocol: Investigating the hydrolysis in the presence of biorelevant molecules is very important to assess the chemical stability and biological activities of these title complexes.
Figure S8. UV/vis absorption of Ru-1 in the absence and presence of (A) GSH or (B) BSA. All spectra were acquired 12 h after GSH or BSA addition at 37 °C in PBS buffer (pH 7.4).
Figure S9. UV/vis absorption of Ru-2 in the absence and presence of (A) GSH or (B) BSA. All spectra were acquired 12 h after GSH or BSA addition at 37 °C in PBS buffer (pH 7.4).

A549 cells [8] = experiment: Hoechst 33342 nuclear staining; assay type: cell-based, human; conditions: 20 μΜ, 24 h
Protocol: as §1

A549 cells [9] = experiment: Cellular uptake and subcellular distribution by ICP-MS; assay type: cell-based, human
Protocol: A549 cells were seeded into six-well plates (5.0 × 10^5 cells per well) and grown overnight at 37°C in a 5% CO2 incubator. The cells were incubated with the different concentrations (5, 10, 15, and 20 μM) of Ru(II) complexes for different time intervals (1, 3, and 6 h). After the incubation, the cells were harvested and washed twice with PBS. Cell Mitochondria Isolation Kit was used to extract the nuclear, mitochondrial, and cytoplasmic fractions of the A549 cells. The pellets were digested with 3 mL concentrated nitric acid and 1 mL perhydrol for 24 h and then diluted to 5 mL with ultrapure water. Finally, ICP-MS was used to determine the amount of Ru(II) complexes uptaken by A549 cells.
It is generally acknowledged that the cellular uptake feature of transition metal-based compounds is an essential factor for their biological activities. As repeatedly reported by previous ruthenium complex-related studies, the more cellular uptake results in higher cytotoxicity. The cellular ruthenium concentration was determined by using ICP-MS after 1, 3, and 6 h of exposure to 5, 10, 15, and 20 μM Ru(II) complexes (Figure 2), respectively, and the results were reported as ng of ruthenium per 10^6 cell number.

[10] = Solution stability by UV-Vis absorption in water and CH3CN; assay type: physicochemical; conditions: 298 K, over 24 h, 20 μM
Protocol: (N-N = dip, dmp) and salicylic acid in the presence of sodium hydroxide. The crude product was purified by chromatography over alumina. The obtained compounds were analyzed by elemental analysis, ESI-MS, ^1H NMR, FTIR, and UV-Vis absorption spectroscopy, and the results were shown in Figures S1–S7 in Supplementary Materials. […] In the UV-visible spectral regions, both complexes consist of two well-resolved absorption bands. In the visible region, these two complexes present a strong MLCT transition at 500–600 nm attributed to the overlap Ru(dπ)-dip or dmp (π^∗) and Ru(dπ)-SA (π^∗). The intense band occurring between 250 nm and 300 nm is attributed to an intra-ligand (IL) π-π^∗ transition by comparing with the spectra of other Ru(II)-polypyridyl complexes.

[11] = system: HepG2 (human hepatocellular carcinoma); experiment: MTT cytotoxicity assay, HepG2; assay type: cell-based; conditions: 48 h
E. histolytica = system: E. histolytica; design: method as in PMID 17154516; conditions: read-out: IC50 anti-E. histolytica activity in vitro; cited from earlier work

Cc1ccc2ccc3ccc(C)nc3c2n1.Cc1ccc2ccc3ccc(C)nc3c2n1.O=C1[O][Ru][O]c2ccccc21 [Ru-2, [Ru(dmp)2(SA)]]
early apoptotic cells (I4) (A549 cells [1]; 5 μM): 2.79% | late apoptotic/necrotic cells (I2) (A549 cells [1]; 5 μM): 0.00% | early apoptotic cells (I4) (A549 cells [1]; 10 μM): 15.83% | early apoptotic cells (I4) (A549 cells [1]; 20 μM): 15.47% | late apoptotic/necrotic cells (I2) (A549 cells [1]; 20 μM): 10.19% | DNA fragmentation, comet assay (A549 cells [2]): well-formed comet tails | IC50 (MCF-7 (breast cancer)): 45.7 ± 3.7 µM | IC50 [3]: 48.1 ± 3.7 µM | MFI higher than the control group (A549 cells [4]): ~1.9 fold | IC50 [5]: 32.5 ± 2.4 µM | IC50 [6]: 30.1 ± 1.2 µM | change in characteristic absorption with excessive GSH or BSA (stability) [7]: no significant change | apoptotic features, Hoechst 33342 staining (A549 cells [8]): chromatin condensation, nuclear fragmentation, and plasma membrane blebbing | Intracellular content of Ru (A549 cells [9]; 5 μM, 1 h): 85.4 ± 9.3 ng Ru/10^6 A549 cell number | Intracellular content of Ru (A549 cells [9]; 5 μM, 3 h): 112.4±9.5 ng Ru/10^6 A549 cell number | Intracellular content of Ru (A549 cells [9]; 5 μM, 6 h): 142.5±9.6 ng Ru/10^6 A549 cell number | Intracellular content of Ru (A549 cells [9]; 10 μM, 1 h): 99.4±9.6 ng Ru/10^6 A549 cell number | Intracellular content of Ru (A549 cells [9]; 10 μM, 3 h): 134.6±8.3 ng Ru/10^6 A549 cell number | Intracellular content of Ru (A549 cells [9]; 10 μM, 6 h): 173.2±8.9 ng Ru/10^6 A549 cell number | Intracellular content of Ru (A549 cells [9]; 15 μM, 1 h): 115.8±11.7 ng Ru/10^6 A549 cell number | Intracellular content of Ru (A549 cells [9]; 15 μM, 3 h): 159.4±8.5 ng Ru/10^6 A549 cell number | Intracellular content of Ru (A549 cells [9]; 15 μM, 6 h): 204.6±8.9 ng Ru/10^6 A549 cell number | Intracellular content of Ru (A549 cells [9]; 20 μM, 1 h): 138.7±15.3 ng Ru/10^6 A549 cell number | Intracellular content of Ru (A549 cells [9]; 20 μM, 3 h): 181.3±9.3 ng Ru/10^6 A549 cell number | Intracellular content of Ru (A549 cells [9]; 20 μM, 6 h): 235.2 ± 16.6 ng Ru/10^6 A549 cell number | change in UV-Vis absorption spectra (solution stability) [10]: no significant change | IC50 [11]: 26.4 ± 2.1 µM

CC(=O)C=C(C)[O-].[Cl-].[Ru+2].c1ccc(CCSCCSCCc2ccccn2)nc1 [[Ru(acac)(pdto)]Cl]
IC50 (E. histolytica): 60 nM

N.N.[Cl][Pt][Cl] [Cisplatin]
IC50 (MCF-7 (breast cancer)): 16.2 ± 2 µM | IC50 [3]: 21.4 ± 1.5 µM | IC50 [5]: 18.3 ± 1.2 µM | SI (selectivity index) = IC50 (BEAS-2B)/IC50 (A549) [6]: 0.8 | IC50 [6]: 27.2 ± 1.4 µM | IC50 [11]: 30.2 ± 2 µM
